The source made the active and inactive calls.
Experiments:
[1] = test system: INS1; assay: beta cell apoptosis inhibitors, cytokine rescue, dose response, luminescence, retest (AID 449756); format: functional, cell-based; conditions: Rattus norvegicus, INS1;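 also: cell death triggered by IL-1 beta plus TNF-alpha plus IFN-gamma mixture; protective hits raise ATP signal compared with cytokine alone wells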
[2] = target: Large T antigen (Simian virus 40, UniProt P03070); format: functional, Betapolyomavirus macacae;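 also: Confirmatory-stage PubChem screen for compounds that inhibit SV40 T antigen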
Sequence of Large T antigen (P03070 whole entry): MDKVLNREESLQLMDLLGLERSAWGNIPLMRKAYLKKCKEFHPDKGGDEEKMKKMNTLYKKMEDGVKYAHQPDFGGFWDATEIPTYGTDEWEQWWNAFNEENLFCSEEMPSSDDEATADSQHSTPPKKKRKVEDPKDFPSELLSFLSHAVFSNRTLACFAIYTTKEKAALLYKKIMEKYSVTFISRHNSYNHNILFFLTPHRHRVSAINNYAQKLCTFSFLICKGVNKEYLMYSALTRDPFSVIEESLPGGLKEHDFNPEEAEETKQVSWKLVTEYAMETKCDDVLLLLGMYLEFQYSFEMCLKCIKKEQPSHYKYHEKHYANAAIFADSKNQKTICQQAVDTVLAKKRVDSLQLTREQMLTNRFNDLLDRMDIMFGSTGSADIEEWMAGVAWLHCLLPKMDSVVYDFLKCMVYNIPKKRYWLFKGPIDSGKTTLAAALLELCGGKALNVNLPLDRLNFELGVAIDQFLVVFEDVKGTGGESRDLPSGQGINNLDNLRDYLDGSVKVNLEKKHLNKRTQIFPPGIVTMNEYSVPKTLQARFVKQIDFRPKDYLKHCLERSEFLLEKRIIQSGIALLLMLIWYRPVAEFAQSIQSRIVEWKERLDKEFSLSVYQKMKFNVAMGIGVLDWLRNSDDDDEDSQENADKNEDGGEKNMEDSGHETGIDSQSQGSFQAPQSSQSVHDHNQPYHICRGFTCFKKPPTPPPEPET

[3] = target: T1, Rac GTPase-activating protein 1 (Homo sapiens, UniProt Q9H0H5); assay: MgcRacGAP GTPase-activating activity inhibitors, confirmation, biochemical, ADP Hunter fluorescence, primary and confirmatory (AID 624330); format: functional
T1 sequence (Q9H0H5 whole entry): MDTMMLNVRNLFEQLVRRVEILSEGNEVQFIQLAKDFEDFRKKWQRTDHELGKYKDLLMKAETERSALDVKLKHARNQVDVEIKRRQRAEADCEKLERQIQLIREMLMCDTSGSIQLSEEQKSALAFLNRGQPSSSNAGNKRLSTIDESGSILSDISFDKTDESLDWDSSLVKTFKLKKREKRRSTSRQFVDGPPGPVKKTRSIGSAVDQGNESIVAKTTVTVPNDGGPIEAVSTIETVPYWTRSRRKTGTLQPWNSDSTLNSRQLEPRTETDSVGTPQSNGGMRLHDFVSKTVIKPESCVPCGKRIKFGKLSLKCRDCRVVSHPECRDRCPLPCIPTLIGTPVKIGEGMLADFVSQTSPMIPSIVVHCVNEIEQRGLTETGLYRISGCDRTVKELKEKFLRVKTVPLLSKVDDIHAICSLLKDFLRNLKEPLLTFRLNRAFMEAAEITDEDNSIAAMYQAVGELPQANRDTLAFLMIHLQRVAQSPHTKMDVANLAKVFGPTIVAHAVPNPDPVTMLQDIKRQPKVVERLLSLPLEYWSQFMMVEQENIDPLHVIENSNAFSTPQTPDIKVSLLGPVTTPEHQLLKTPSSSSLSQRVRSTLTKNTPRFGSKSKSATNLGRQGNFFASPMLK

[4] = Luminescence Cell-Based Dose Retest to Confirm Inhibitors of Cancer Stem Cells. [Related pubchem assays (depositor defined):AID2717, AID2721]; format: functional; conditions: Homo sapiens
[5] = target: T2, Replicative DNA helicase DnaB (Mycobacterium tuberculosis, UniProt P9WMR3); assay: DnaB intein splicing inhibitors, dose response, biochemical, cell-free fluorescence (AID 449749); format: functional
T2 sequence (P9WMR3 whole entry): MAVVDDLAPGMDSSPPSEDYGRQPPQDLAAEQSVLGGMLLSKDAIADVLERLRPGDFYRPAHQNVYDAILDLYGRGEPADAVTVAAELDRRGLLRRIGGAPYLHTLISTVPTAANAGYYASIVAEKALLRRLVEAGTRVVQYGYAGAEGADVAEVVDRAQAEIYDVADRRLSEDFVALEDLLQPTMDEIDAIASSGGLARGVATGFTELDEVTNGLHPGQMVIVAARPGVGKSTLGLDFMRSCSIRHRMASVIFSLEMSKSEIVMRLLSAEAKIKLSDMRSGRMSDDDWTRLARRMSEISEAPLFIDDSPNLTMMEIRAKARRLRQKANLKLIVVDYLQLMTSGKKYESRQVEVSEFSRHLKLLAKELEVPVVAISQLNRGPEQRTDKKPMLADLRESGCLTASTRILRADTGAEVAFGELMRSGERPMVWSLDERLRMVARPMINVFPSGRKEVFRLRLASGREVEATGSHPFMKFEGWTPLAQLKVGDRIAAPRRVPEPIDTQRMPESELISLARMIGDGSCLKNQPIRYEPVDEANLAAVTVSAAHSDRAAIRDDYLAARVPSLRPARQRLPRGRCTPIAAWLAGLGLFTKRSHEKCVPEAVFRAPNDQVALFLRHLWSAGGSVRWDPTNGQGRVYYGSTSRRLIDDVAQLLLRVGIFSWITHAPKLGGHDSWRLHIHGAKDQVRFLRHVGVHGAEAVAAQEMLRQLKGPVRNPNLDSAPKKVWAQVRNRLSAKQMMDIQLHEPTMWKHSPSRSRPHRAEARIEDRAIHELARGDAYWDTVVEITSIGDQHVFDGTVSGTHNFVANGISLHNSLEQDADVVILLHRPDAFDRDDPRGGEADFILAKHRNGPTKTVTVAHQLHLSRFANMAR

[6] = target: T3, Protein RecA (Mycobacterium tuberculosis, UniProt P9WHJ3); assay: Fluorescence Cell-Free Homogeneous Dose Retest to Identify Inhibitors of RecA-Intein Splicing Activity. [Related pubchem assays (depositor defined):AID2097, AID2223, AID489010, AID492950]; format: functional
T3 sequence (P9WHJ3 whole entry): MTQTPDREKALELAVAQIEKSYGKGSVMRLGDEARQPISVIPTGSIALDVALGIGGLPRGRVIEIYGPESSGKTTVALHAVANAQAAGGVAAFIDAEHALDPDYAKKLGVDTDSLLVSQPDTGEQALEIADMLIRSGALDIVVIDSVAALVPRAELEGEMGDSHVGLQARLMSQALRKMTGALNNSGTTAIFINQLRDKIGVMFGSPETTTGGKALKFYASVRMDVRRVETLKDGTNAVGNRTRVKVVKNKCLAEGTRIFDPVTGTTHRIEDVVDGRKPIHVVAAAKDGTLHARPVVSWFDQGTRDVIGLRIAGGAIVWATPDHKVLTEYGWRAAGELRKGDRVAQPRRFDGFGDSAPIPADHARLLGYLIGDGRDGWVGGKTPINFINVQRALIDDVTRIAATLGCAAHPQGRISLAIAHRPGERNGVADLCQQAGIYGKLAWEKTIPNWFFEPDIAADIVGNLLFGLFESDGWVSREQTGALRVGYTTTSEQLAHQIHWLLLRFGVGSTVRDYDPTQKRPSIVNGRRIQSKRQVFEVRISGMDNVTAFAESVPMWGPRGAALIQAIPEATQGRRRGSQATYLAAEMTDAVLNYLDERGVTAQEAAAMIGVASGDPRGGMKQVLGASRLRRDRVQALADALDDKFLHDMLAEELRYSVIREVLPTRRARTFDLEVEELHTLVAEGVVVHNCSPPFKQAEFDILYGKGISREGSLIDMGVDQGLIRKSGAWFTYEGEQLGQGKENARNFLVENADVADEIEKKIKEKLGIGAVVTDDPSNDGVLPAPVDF

[7] = inhibitors of intracellular T. cruzi replication, confirmation, NIH3T3 host cells, beta-gal luminescence (AID 2044); format: functional, cell-based;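 also: intracellular parasites grown in NIH/3T3 mouse fibroblasts as host cells; luminescent beta-galactosidase reporter signal from transgenic T. cruzi replicating inside host cells; inhibitors lower the luminescence signal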
[8] = cytotoxicity toward NIH3T3 fibroblasts, dose response, counter-screen, cell-based, ATP luminescence, mouse fibroblasts (AID 2010); format: functional;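 also: cells exposed to compound for about 90 hours before reading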
[9] = test system: H9c2; assay: cells; format: functional, cell-based; conditions: Rattus norvegicus, H9c2, Myocardium;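 also: confirmatory concentration-response retest of ultra-high-throughput screening hits for modulation of myocardial damage; cell death induced by hydrogen peroxide oxidative stress; compound pretreatment for 60 min then peroxide exposure for 2 h; potency is for protecting the cells against peroxide damage rather than for killing them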

Row | SMILES | IC50 [2] | IC50 [9] | further results
1 | O=C(Nc1ccc(Cl)c(Cl)c1)Nc1nnc(CC2=CCCCC2)s1 |  |  | AC50 [1]: 3.51 µM (active)
2 | COc1ccc(-c2c([C@H]3[C@H]4C=CC[C@@H](C)[C@@H]4C(=O)N3Cc3ccccc3)ccc3ccccc23)cc1 |  |  | AC50 [1]: 9.01 µM (active)
3 | CCOc1cc(/C=N\NC(=O)CC(=O)NCCc2ccccc2)ccc1O | 7.94 µM (active) |  | IC50 [3]: 46.5 µM (active)
4 | O=C(Nc1ccccc1)Nc1ccc(O)c2ccccc12 |  |  | AC50 [4]: 2.56 µM (active); AC50 [5]: 9.08 µM (active); EC50 [6]: 0.762 µM (active)
5 | Cc1nc(Cl)cc(N/N=C/c2ccc(O)cc2)n1 | 8.13 µM (active) |  | 
6 | COc1ccc2nc(O)c(CN(Cc3ccco3)C(c3nnnn3Cc3ccccc3)C(C)C)cc2c1 (stereo not drawn) |  | > 79 µM (inactive) | EC50 [7]: > 60 µM (not active); EC50 [8]: > 60 µM (not active)
7 | O=C(c1cccc(-c2ccc(O)cc2)c1)N1CCOCC1 | 10.2 µM (active) |  | 
8 | CCOc1cccc(Nc2cc3n(c(=O)n2)CCc2cc(OC)c(OC)cc2-3)c1 |  | 12.8 µM (active) | 
9 | C/C(=N/NC(=O)CSc1nc2ccccc2n1C)c1ccc(O)cc1 | 30.9 µM (active) |  | IC50 [3]: 138 µM (active)
10 | C/C(=N\CCCn1ccnc1)c1c(-c2ccccc2)[nH]n(-c2nc3ccccc3s2)c1=O |  | > 79 µM (inactive) | 
11 | CCOc1cc(/C=C2/NC(=O)N(CC(=O)OC)C2=O)ccc1O | 12.5 µM (active) |  | 
12 | CCOC(=O)Cc1nnc(O)c2ccccc12 |  | 11.1 µM (active) | 
